Assays:
Assay in all cases: relative viability (nuclei count vs DMSO), 5 days (fraction); higher = more cells survive
HCC-78 = test system: HCC-78
Method in brief: (§1)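 Relative viability divides the nuclei count in treated wells by that in vehicle wells. Lung cancer cell lines were seeded in 1536-well plates, dosed by pin tool the next day, and fixed and stained after 5 days in one step with final 0.05% Triton X-100, 1% formaldehyde and 1 ug/ml Hoechst. Dosing was a single drug or a fixed anchor-drug dose plus five library-drug doses (not always all listed) in √10 steps, and values are medians of duplicate plates imaged at 4×.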

COR-L 105 = test system: COR-L 105
Method in brief: as §1

HOP-62 = test system: HOP-62
Method in brief: as §1

NCI-H1915 = test system: NCI-H1915
Method in brief: as §1

NCI-H460 = test system: NCI-H460
Method in brief: as §1

NCI-H1666 = test system: NCI-H1666
Method in brief: as §1

NCI-H2009 = test system: NCI-H2009
Method in brief: as §1

EPLC-272H = test system: EPLC-272H
Method in brief: as §1

SK-LU-1 = test system: SK-LU-1
Method in brief: as §1

NCI-H358 = test system: NCI-H358
Method in brief: as §1

NCI-H1792 = test system: NCI-H1792
Method in brief: as §1

NCI-H1793 = test system: NCI-H1793
Method in brief: as §1

A-427 = test system: A-427
Method in brief: as §1

HCC-366 = test system: HCC-366
Method in brief: as §1

NCI-H1944 = test system: NCI-H1944
Method in brief: as §1

UMC-11 = test system: UMC-11
Method in brief: as §1

LC-2-ad = test system: LC-2-ad
Method in brief: as §1

LU99A = test system: LU99A
Method in brief: as §1

NCI-H2170 = test system: NCI-H2170
Method in brief: as §1

NCI-H2085 = test system: NCI-H2085
Method in brief: as §1

LXF-289 = test system: LXF-289
Method in brief: as §1

O=c1cc(-c2cccc3c2Sc2ccccc2S3)oc(N2CCOCC2)c1 + CS(=O)(=O)CCNCc1ccc(-c2ccc3ncnc(Nc4ccc(OCc5cccc(F)c5)c(Cl)c4)c3c2)o1 [Lapatinib] (partner 2 µM)
relative viability (HCC-78; first compound 0.08 µM): 0.873 | relative viability (HCC-78; first compound 0.253 µM): 0.822 | relative viability (HCC-78; first compound 0.8 µM): 0.718 | relative viability (HCC-78; first compound 2.53 µM): 0.735 | relative viability (HCC-78; first compound 8 µM): 0.901 | relative viability (COR-L 105; first compound 0.08 µM): 0.359 | relative viability (COR-L 105; first compound 0.253 µM): 0.323 | relative viability (COR-L 105; first compound 0.8 µM): 0.306 | relative viability (COR-L 105; first compound 2.53 µM): 0.375 | relative viability (COR-L 105; first compound 8 µM): 0.386 | relative viability (HOP-62; first compound 0.08 µM): 0.829 | relative viability (HOP-62; first compound 0.253 µM): 1.08 | relative viability (HOP-62; first compound 0.8 µM): 1.13 | relative viability (HOP-62; first compound 2.53 µM): 0.727 | relative viability (HOP-62; first compound 8 µM): 1.07 | relative viability (NCI-H1915; first compound 0.08 µM): 1.02 | relative viability (NCI-H1915; first compound 0.253 µM): 1.04 | relative viability (NCI-H1915; first compound 0.8 µM): 1.13 | relative viability (NCI-H1915; first compound 2.53 µM): 0.905 | relative viability (NCI-H1915; first compound 8 µM): 1.06 | relative viability (NCI-H460; first compound 0.08 µM): 1.13 | relative viability (NCI-H460; first compound 0.253 µM): 1.52 | relative viability (NCI-H460; first compound 0.8 µM): 1.22 | relative viability (NCI-H460; first compound 2.53 µM): 0.843 | relative viability (NCI-H460; first compound 8 µM): 1.19 | relative viability (NCI-H1666; first compound 0.08 µM): 0.533 | relative viability (NCI-H1666; first compound 0.253 µM): 0.781 | relative viability (NCI-H1666; first compound 0.8 µM): 0.485 | relative viability (NCI-H1666; first compound 2.53 µM): 0.652 | relative viability (NCI-H1666; first compound 8 µM): 0.573 | relative viability (NCI-H2009; first compound 0.08 µM): 0.879 | relative viability (NCI-H2009; first compound 0.253 µM): 0.893 | relative viability (NCI-H2009; first compound 0.8 µM): 0.876 | relative viability (NCI-H2009; first compound 2.53 µM): 0.895 | relative viability (NCI-H2009; first compound 8 µM): 0.823 | relative viability (EPLC-272H; first compound 0.08 µM): 0.935 | relative viability (EPLC-272H; first compound 0.253 µM): 0.841 | relative viability (EPLC-272H; first compound 0.8 µM): 0.867 | relative viability (EPLC-272H; first compound 2.53 µM): 0.779 | relative viability (EPLC-272H; first compound 8 µM): 1.2 | relative viability (SK-LU-1; first compound 0.08 µM): 1.02 | relative viability (SK-LU-1; first compound 0.253 µM): 0.858 | relative viability (SK-LU-1; first compound 0.8 µM): 0.968 | relative viability (SK-LU-1; first compound 2.53 µM): 0.817 | relative viability (SK-LU-1; first compound 8 µM): 0.836 | relative viability (NCI-H358; first compound 0.08 µM): 0.407 | relative viability (NCI-H358; first compound 0.253 µM): 0.392 | relative viability (NCI-H358; first compound 0.8 µM): 0.42 | relative viability (NCI-H358; first compound 2.53 µM): 0.424 | relative viability (NCI-H358; first compound 8 µM): 0.467 | relative viability (NCI-H1792; first compound 0.253 µM): 1 | relative viability (NCI-H1792; first compound 0.8 µM): 0.824 | relative viability (NCI-H1792; first compound 2.53 µM): 0.83 | relative viability (NCI-H1792; first compound 8 µM): 1.58 | relative viability (NCI-H1793; first compound 0.08 µM): 0.641 | relative viability (NCI-H1793; first compound 0.253 µM): 1.16 | relative viability (NCI-H1793; first compound 0.8 µM): 0.643 | relative viability (NCI-H1793; first compound 2.53 µM): 0.837 | relative viability (NCI-H1793; first compound 8 µM): 0.752 | relative viability (A-427; first compound 0.08 µM): 1.06 | relative viability (A-427; first compound 0.253 µM): 1.05 | relative viability (A-427; first compound 0.8 µM): 1.08 | relative viability (A-427; first compound 2.53 µM): 0.868 | relative viability (A-427; first compound 8 µM): 1.12 | relative viability (HCC-366; first compound 0.08 µM): 1.12 | relative viability (HCC-366; first compound 0.253 µM): 1.71 | relative viability (HCC-366; first compound 0.8 µM): 1.12 | relative viability (HCC-366; first compound 2.53 µM): 0.995 | relative viability (HCC-366; first compound 8 µM): 1.56 | relative viability (NCI-H1944; first compound 0.08 µM): 0.846 | relative viability (NCI-H1944; first compound 0.253 µM): 1.07 | relative viability (NCI-H1944; first compound 0.8 µM): 0.733 | relative viability (NCI-H1944; first compound 8 µM): 0.998 | relative viability (UMC-11; first compound 0.08 µM): 1.02 | relative viability (UMC-11; first compound 0.253 µM): 1.28 | relative viability (UMC-11; first compound 0.8 µM): 1.21 | relative viability (UMC-11; first compound 2.53 µM): 0.78 | relative viability (UMC-11; first compound 8 µM): 1.29 | relative viability (LC-2-ad; first compound 0.08 µM): 0.963 | relative viability (LC-2-ad; first compound 0.253 µM): 1.04 | relative viability (LC-2-ad; first compound 0.8 µM): 1.06 | relative viability (LC-2-ad; first compound 2.53 µM): 0.921 | relative viability (LC-2-ad; first compound 8 µM): 0.956 | relative viability (LU99A; first compound 0.08 µM): 1.07 | relative viability (LU99A; first compound 0.253 µM): 0.954 | relative viability (LU99A; first compound 0.8 µM): 1.49 | relative viability (LU99A; first compound 2.53 µM): 1.03 | relative viability (LU99A; first compound 8 µM): 1.11 | relative viability (NCI-H2170; first compound 0.08 µM): 0.258 | relative viability (NCI-H2170; first compound 0.253 µM): 0.284 | relative viability (NCI-H2170; first compound 0.8 µM): 0.239 | relative viability (NCI-H2170; first compound 2.53 µM): 0.271 | relative viability (NCI-H2170; first compound 8 µM): 0.308 | relative viability (NCI-H2085; first compound 0.08 µM): 0.636 | relative viability (NCI-H2085; first compound 0.253 µM): 0.86 | relative viability (NCI-H2085; first compound 0.8 µM): 0.767 | relative viability (NCI-H2085; first compound 2.53 µM): 0.703 | relative viability (NCI-H2085; first compound 8 µM): 0.644 | relative viability (LXF-289; first compound 0.08 µM): 0.87 | relative viability (LXF-289; first compound 0.253 µM): 0.935 | relative viability (LXF-289; first compound 0.8 µM): 0.942 | relative viability (LXF-289; first compound 2.53 µM): 0.856 | relative viability (LXF-289; first compound 8 µM): 0.93

Reference: the supplement of paper PMC10307832
